Where “and” joins values, the source holds several entries; their conditions need not be identical. Identical values can stand only once. Inconclusive results and toxic doses are left out. Cut-off read from the data, not from the text of the source: active = T/C of 150% or more; inactive = T/C below 125%.
Tested on: L1210 leukemia ip in BDF1 mice, survival T/C
Assay: NCI In Vivo Anticancer Drug Screen. Data for tumor model L1210 Leukemia (intraperitoneal) in B6D2F1 (BDF1) mice
Details: endpoint: mean survival time, higher = longer survival
Summary of the method: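 In this screen, tumor-bearing mice given compound are compared to those given vehicle, and their survival values are reported as a treated-to-control quotient.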

[1] = dose: 100.0 mg/kg/injection, schedule: Q01DX001 (ip), vehicle: Klucel (hydroxypropylcellulose) (HPC)
[2] = dose: 200.0 mg/kg/injection, schedule: Q01DX001 (ip), vehicle: Klucel (hydroxypropylcellulose) (HPC)
[3] = dose: 100.0 mg/kg/injection, schedule: Q01DX001 (ip), vehicle: saline
[4] = dose: 200.0 mg/kg/injection, schedule: Q01DX001 (ip), vehicle: saline
[5] = dose: 400.0 mg/kg/injection, schedule: Q01DX001 (ip), vehicle: saline
[6] = dose: 50.0 mg/kg/injection, schedule: Q04DX002 (ip), vehicle: Klucel (hydroxypropylcellulose) (HPC)
[7] = dose: 100.0 mg/kg/injection, schedule: Q04DX002 (ip), vehicle: Klucel (hydroxypropylcellulose) (HPC)
[8] = dose: 200.0 mg/kg/injection, schedule: Q04DX002 (ip), vehicle: Klucel (hydroxypropylcellulose) (HPC)
[9] = dose: 400.0 mg/kg/injection, schedule: Q04DX002 (ip), vehicle: Klucel (hydroxypropylcellulose) (HPC)
[10] = dose: 100.0 mg/kg/injection, schedule: Q01DX009 (ip), vehicle: Klucel (hydroxypropylcellulose) (HPC)
[11] = dose: 200.0 mg/kg/injection, schedule: Q01DX009 (ip), vehicle: Klucel (hydroxypropylcellulose) (HPC)
[12] = dose: 400.0 mg/kg/injection, schedule: Q01DX009 (ip), vehicle: Klucel (hydroxypropylcellulose) (HPC)
[13] = dose: 400.0 mg/kg/injection, schedule: Q01DX001 (ip), vehicle: Klucel (hydroxypropylcellulose) (HPC)
[14] = dose: 100.0 mg/kg/injection, schedule: Q04DX003 (ip), vehicle: Klucel (hydroxypropylcellulose) (HPC)
[15] = dose: 200.0 mg/kg/injection, schedule: Q04DX003 (ip), vehicle: Klucel (hydroxypropylcellulose) (HPC)
[16] = dose: 400.0 mg/kg/injection, schedule: Q04DX003 (ip), vehicle: Klucel (hydroxypropylcellulose) (HPC)

Measured: T/C

Cc1ccc(COP(=O)(c2ccccc2)c2ccccc2)cc1
inactive: dose: 66.0 mg/kg/injection, schedule: Q01DX001 (ip), vehicle: Klucel (hydroxypropylcellulose) (HPC) 98 % of control | [1] 93 % of control | dose: 150.0 mg/kg/injection, schedule: Q01DX001 (ip), vehicle: Klucel (hydroxypropylcellulose) (HPC) 97 % of control | [2] 91 % of control

C=CCSc1ccccc1C
inactive: [3] 95 % of control | [4] 95 % of control

NS(=O)(=O)c1ccc(N=Nc2ccc([As](=O)(O)O)cc2)cc1
inactive: [3] 98 % of control | [4] 98 % of control | [5] 98 % of control

O=C(CCCC(=O)N/N=C/c1cccc(I)c1)N/N=C\c1cccc(I)c1
inactive: dose: 50.0 mg/kg/injection, schedule: Q01DX001 (ip), vehicle: saline 100 % of control | [3] 100 % of control | [4] 100 % of control | [5] 97 % of control

O=C1OC(c2ccccc2)=N/C1=C\c1cccnc1
inactive: [6] 90 % of control | [7] 96 % of control | [8] 86 % of control | [9] 86 % of control

CSCCC(NC(=O)COc1ccc(Cl)cc1Cl)C(=O)O (configuration not stated)
inactive: [10] 100 % of control | [11] 101 % of control | [12] 108 % of control

N#Cc1nc(/C=C\c2ccc3c(c2)OCO3)cnc1N
inactive: [1] 106 % of control | [2] 95 % of control | [13] 89 % of control

O=[N+]([O-])c1ccc(S(=O)(=O)N2CCN(S(=O)(=O)c3ccc([N+](=O)[O-])cc3)C2)cc1
inactive: dose: 50.0 mg/kg/injection, schedule: Q01DX009 (ip), vehicle: Klucel (hydroxypropylcellulose) (HPC) 93 % of control | [10] 87 % of control and 91 % of control | [14] 91 % of control | [11] 93 % of control | [15] 94 % of control | [12] 101 % of control | [16] 98 % of control

O=c1c2ccccc2cc2ccccn12
inactive: [10] 100 % of control | [14] 95 % of control | [11] 94 % of control | [15] 97 % of control | [12] 92 % of control | [16] 97 % of control

O=c1cc(N2CCOCC2)nc2ccccn12
inactive: dose: 100.0 mg/kg/injection, schedule: Q01DX001 (ip), vehicle: carboxymethylcellulose (CMC) 100 % of control | dose: 200.0 mg/kg/injection, schedule: Q01DX001 (ip), vehicle: carboxymethylcellulose (CMC) 96 % of control | dose: 400.0 mg/kg/injection, schedule: Q01DX001 (ip), vehicle: carboxymethylcellulose (CMC) 102 % of control

O=C(OCCCl)c1ccco1
inactive: [3] 102 % of control | [4] 102 % of control | [5] 107 % of control

O=C(Nc1ccccc1C(=O)N/N=C/c1c(O)ccc2ccccc12)c1ccccc1Cl
inactive: [1] 95 % of control | [10] 99 % of control and 103 % of control | [7] 95 % of control and 104 % of control | [14] 100 % of control | [2] 93 % of control | [11] 101 % of control and 102 % of control | [8] 103 % of control | [15] 96 % of control | [13] 95 % of control | [12] 94 % of control and 95 % of control | [9] 93 % of control and 92 % of control | [16] 96 % of control

Cc1cnc(NN)nc1-c1ccccc1O
inactive: dose: 25.0 mg/kg/injection, schedule: Q04DX002 (ip), vehicle: Klucel (hydroxypropylcellulose) (HPC) 95 % of control | [6] 97 % of control | [7] 105 % of control and 110 % of control
